In US20230381321A1, “CAMPTOTHECIN CONJUGATES” (priority 2022, published 2023):
Like-named read-outs stand apart in the source and are kept apart here.

Columns and labels:
Type in all cases: cell-based
[1] = test system: anaplastic large cell lymphoma cells (Karpas299); assay: In vitro potency (CellTiter-Glo, 96 h) on Karpas299; settings: Homo sapiens, KARPAS-299, 96 h, read-out: Karpas299 IC50
Description: (§1) In vitro potency was assessed on multiple cancer cell lines. All cell lines were authenticated by STR profiling at IDEXX Bioresearch and cultured for no more than 2 months after resuscitation. Cells cultured in log-phase growth were seeded for 24 hours in 96-well plates containing […] RPMI 1640 supplemented with 20% FBS. Serial dilutions of antibody-drug conjugates in cell culture media were prepared at 4x working concentrations, and 50 μL of each dilution was added to the 96-well plates. Following addition of test articles, cells were incubated with test articles for 4 days at […]. After 96 hours, growth inhibition was assessed by CellTiterGlo® (Promega, Madison, WI) and luminescence was measured on a plate reader.
(§2) Cell viability was determined by CellTiter-Glo staining after 96h exposure to ADC. ND=Not Determined. In the following tables, “Ex_” refers to a drug linker number. For example, “Ag4-Ex_4a” refers to a conjugate of an Ag4 antibody with drug linker 4a.

[2] = test system: anaplastic large cell lymphoma cells (DEL); assay: In vitro potency (CellTiter-Glo, 96 h) on DEL; settings: 96 h, read-out: DEL IC50
Description: as §1, §2

[3] = test system: Hodgkin's lymphoma cells (L540cy); assay: In vitro potency (CellTiter-Glo, 96 h) on L540cy; settings: L540cy, 96 h, read-out: L540cy IC50
Description: as §1, §2

[4] = test system: anaplastic large cell lymphoma cells (DELBVR); assay: In vitro potency (CellTiter-Glo, 96 h) on DELBVR; settings: 96 h, read-out: DELBVR IC50
Description: as §1, §2

[5] = test system: B-lymphocyte cancer cells (SU-DHL4); assay: In vitro potency (CellTiter-Glo, 96 h) on SU-DHL4; settings: Homo sapiens, SU-DHL-4, 96 h, read-out: SU-DHL-4 IC50
Description: as §1, §2

[6] = test system: acute myeloid leukemia cells (MOLM-13); assay: In vitro potency (CellTiter-Glo, 96 h) on MOLM-13; settings: Homo sapiens, MOLM-13, 96 h, read-out: MOLM-13 IC50
Description: as §1, §2

[7] = test system: pancreatic cancer cells (BxPC3); assay: In vitro potency (CellTiter-Glo, 96 h) on BxPC3; settings: Homo sapiens, BXPC-3, 96 h, read-out: BxPC3 IC50
Description: as §1, §2

[8] = test system: renal carcinoma cells (786-O); assay: In vitro potency (CellTiter-Glo, 96 h) on 786-O; settings: Homo sapiens, 786-0, 96 h, read-out: 786-O IC50
Description: as §1, §2

[9] = test system: breast cancer cells (MDA-MB-231); assay: In vitro potency (CellTiter-Glo, 96 h) on MDA-MB-231; settings: Homo sapiens, MDA-MB-231, 96 h, read-out: MDAMB 231 IC50
Description: as §1, §2

[10] = In vitro potency (CellTiter-Glo, 96 h) on Ls174T; settings: Homo sapiens, LS174T, read-out: Ls174T IC50
Description: as §1, §2

[11] = CPT free drugs, CellTiter-Glo after 96 h exposure

Structure (SMILES)	IC50 [1, 11] [nM]	IC50 [2, 11] [nM]	IC50 [3, 11] [nM]	IC50 [4, 11] [nM]	IC50 [5, 11] [nM]	IC50 [6, 11] [nM]	IC50 [7, 11] [nM]	IC50 [8, 11] [nM]	IC50 [9, 11] [nM]	IC50 [10, 11] [nM]	IC50 [1] [nM]	IC50 [2] [nM]	IC50 [3] [nM]	IC50 [4] [nM]	IC50 [5] [nM]	IC50 [6] [nM]	IC50 [7] [nM]	IC50 [8] [nM]	IC50 [9] [nM]	IC50 ([10]; 96 h) [nM]
CC[C@@]1(O)C(=O)OCc2c1cc1n(c2=O)Cc2c-1nc1cc(F)c(C)c(/C=C/c3ccc(OC)cc3)c1c2CN [Compound 2ai]	47	6	47	5	13	34	57	64	79	64										
CC[C@@]1(O)C(=O)OCc2c1cc1n(c2=O)Cc2c-1nc1cc3c(cc1c2CNC(C)=O)CCO3 [Compound 12]											24	1	5	1	1	5	12	13	27	19
C=Cc1c(C)c(F)cc2nc3c(c(CN)c12)Cn1c-3cc2c(c1=O)COC(=O)[C@]2(O)CC [Compound 2am, (S)-11-(aminomethyl)-4-ethyl-8-fluoro-4-hydroxy-9-methyl-10-vinyl-1,12-dihydro-14H-pyrano[3′,4′:6,7]indolizino[1,2-b]quinoline-3,14(4H)-dione]											2	0.3	1	0.3	1	2	4	2	5	5
CC[C@@]1(O)C(=O)OCc2c1cc1n(c2=O)Cc2c-1nc1cc3c(cc1c2CNC[C@@H](O)CN1CCCCC1)OCO3 [Compound 7z]											150	17	48	16	39	143	127	123	306	79
C=C(C)c1c(C)c(F)cc2nc3c(c(CN)c12)Cn1c-3cc2c(c1=O)COC(=O)[C@]2(O)CC [Compound 2al]											4	1	2	1	1	2	7	4	9	11
CC[C@@]1(O)C(=O)OCc2c1cc1n(c2=O)Cc2c-1nc1cc(F)c(C)c3c1c2[C@@H](NC(=O)CN)CC3 [Compound 13b]	11	1	6	4	2	23	21	27	30	58										
CC[C@@]1(O)C(=O)OCc2c1cc1n(c2=O)Cc2c-1nc1cc3c(cc1c2CN1CCC(N)CC1)OCO3 [Compound 8f]											110	14	84	30	32	32	166	267	207	236
CC[C@@]1(O)C(=O)OCc2c1cc1n(c2=O)Cc2c-1nc1cc3c(cc1c2CNCCN1CCNCC1)OCO3 [Compound 8b]											62	8	56	13	17	91	51	102	260	111
CC[C@@]1(O)C(=O)OCc2c1cc1n(c2=O)Cc2c-1nc1cc3c(cc1c2CNCCCNC)OCO3 [Compound 8a]											8	1	5	2	4	3	15	11	22	48
CC[C@@]1(O)C(=O)OCc2c1cc1n(c2=O)Cc2c-1nc1cc3c(cc1c2CNCCCN1CCNCC1)OCO3 [Compound 8d]											9	2	6	2	6	37	14	15	25	19
